Measured values taken from patent US12636368B2, “Ionizable lipids for nucleic acid delivery” (Global Life Sciences Solutions Canada ULC, priority 2019, dated 2026).
Read-outs that look alike come from different tables or passages of the source.

Tests used:
C56BL/6 mice = experiment: hEPO expression in mice after i.v. EPO mRNA LNPs; format: in vivo
Experimental: C56BL/6 mice were administered i.v doses of 0.5, 1 or 3 mg/Kg of recombinant human EPO-encoded mRNA LNPs containing ionizable lipids MC3, PNI 76, PNI 121 and PNI 127 using the LM02 composition at N/P 6; hEPO protein was measured using Quantikine® IVD® ELISA Human Erythropoietin Immunoassay protocol. Results for the 0.5 mg/Kg dosage are shown in the scatter plot of FIG. 7. Results for the 1 and 3 mg/Kg doses are shown in FIG. 8 as scatter plots of hEPO expression levels at 6 h (left) and 24 h (right).
In another study, 5-moU EPO mRNA encapsulated in LM02 LNP at an N/P ratio of 6 and a dose of 0.5 mg/Kg comprising a variety of […] ionizable lipids (PNI 336, PNI 534, PNI 535, PNI 342, PNI 321, PNI 532, PNI 538, PNI 541, PNI 325, PNI 328, PNI 329, PNI 539, PNI 540, PNI 127); along with MC3 as a control, were administered. hEPO protein was measured using ProteinSimple® Ella platform, and the rhEPO microfluidic cartridges provided by the manufacturer.
Blood from mice treated with hEPO mRNA LNP was analyzed using an automated ELISA platform “ELLA”, using Simplex™ antibody panel cartridges. Human-specific EPO and mouse-specific IL-5, IL-6, TNF-α, and IFN-γ were measured (reagents from Bio-techne). Briefly, 50 μL of sample reagent (diluted biological sample, quality control, or calibration point sample) were aliquoted into each sample inlet, and 1 mL of wash buffer was added into corresponding inlets on the cartridge. All immunoassay operations (including prime system, flow samples and split them into channels, sample incubation, wash, rehydrate and flow secondary antibody, wash, rehydrate and flow streptavidin dye conjugate, incubate, wash, scan) were processed automatically. Raw signal levels (relative fluorescence units, RFUs), mean signal values, standard deviation, and coefficient of variance (CV) for each glass nanoReactor (GNR) value are provided. RFU values are automatically backfit by the ELLA to produce an analyte concentration per analyte/sample using the manufacturer given calibration methodology.
Reagents were acquired from Quantikine, Minneapolis, MN. The assay was performed as directed on the Quantikine® IVD® ELISA Human Erythropoietin Immunoassay protocol REF DEP00 Package Insert. Briefly; Sera samples of 6 h, and/or 24 h post intravenous administration of 0.5, 1 or 3 mg/kg dose of EPO-encoded mRNA were analyzed for EPO expression analysis, and expressed as mIU/mL. To an EPO antibody pre-coated 96-well microplate, provided by the manufacturer, standards, appropriately diluted sera, and the Horseradish peroxidase (HRP)-conjugated rabbit anti-EPO polyclonal antibody and TMB (Tetramethylbenzidine) as the substrate were added and incubated for 20 minutes. Stop solution (Sulfuric Acid) was added to the wells and the plate was read at 450 nm and the concentration of EPO was calculated. The amount of colour generated is directly proportional to the amount of the conjugate bound to EPO antibody, which in turn is directly proportional to the amount of EPO in the specimen or standard. A standard curve was generated by plotting absorbance versus concentration of provided standards. Quantikine® Human Serum Controls (CEP 01, CEP 03) were used for internal controls.

[1] = Nucleic acid encapsulation efficiency by RiboGreen assay; format: physicochemical
Experimental: Messenger RNA or plasmid NAT was diluted using sodium acetate buffer to the required concentration. Lipid nucleic acid particle samples were then prepared by running both fluids using the NanoAssemblr® Spark instrument. […] The lipid nucleic acid particles made in the instrument were immediately diluted down with 48 μL Ca and Mg free 1×PBS at pH 7.4 in the aqueous output well. These nucleic acid lipid particles were immediately collected into microcentrifuge tubes containing 96 μL of Ca and Mg free 1×PBS at pH 7.4. Encapsulation efficiency was measured by a modified Ribogreen™ assay (Quanti-iT RiboGreen™ RNA assay kit, Fisher). Observed particle attributes were generally sized from 60-200 nm for mRNA, depending on lipid composition and method of production.
(§1) Physical characteristics of lipid nanoparticle (LNP) compositions comprising compounds according to Formula (I) and that were manufactured on the NanoAssemblr® Spark and Benchtop, are shown in Tables 6 and 7 below. Size, size variation of the LNP (PDI), encapsulation efficiency, and pKa are shown. The physical characteristics of these LNP are important from a standpoint of stability, biodistribution, and cell membrane crossing. There was good encapsulation in all the formulations, with polydispersity (PDI) under 0.3. Size and PDI were measured using dynamic light scattering techniques, and nucleic acid encapsulation efficiency was calculated from a modified Quant-iT RiboGreen RNA assay.

[2] = LNP size and PDI by dynamic light scattering; format: physicochemical
Experimental: After the lipid particles were made as described supra, particle size (hydrodynamic diameter of the particles) was determined by Dynamic Light Scattering (DLS) using a ZetaSizer™ Nano ZS™ (Malvern Instruments, UK). He/Ne laser tuned to 633 nm wavelength was used as the light source. Data were measured from the scattered intensity data conducted in backscattering detection mode (measurement angle=173). Measurements were an average of 10 runs of two cycles each per sample. Z-Average size was reported as the particle size, and is defined as the harmonic intensity averaged particle diameter.
as §1

[3] = TNS assay, surface pKa of lipid nanoparticles; format: physicochemical
Experimental: In embodiments of the invention, the experimental pKa of formulated lipid nanoparticles comprising lipids in Table 1 is calculated using the 2-(p-toluidinyl)naphthalene-6-sulfonic acid (TNS) assay. The procedure for the TNS assay is described in Example 25.
The pKa of each cationic lipid was determined in lipid nanoparticles using an assay based on fluorescence of 6-(p-Toluidino)-2-naphthalenesulfonic acid sodium salt (TNS, Sigma Aldrich), which is a fluorescent probe for the conformational state of proteins5. Empty lipid nanoparticles comprising ionizable lipid in LM02 composition in distilled water at a concentration of 3.125 mM total lipid are formulated using NanoAssemblr® Spark™, and were then was characterized for LNP quality on the Zetasizer™ using a 30× dilution with 1×PBS in the low volume cuvette. Lipid nanoparticles were further diluted 4× using distilled water to 0.781 mM total lipid. TNS was prepared as a 25 μM stock solution in distilled water. Then 6.4 μL of diluted LNP samples of 0.781 mM total lipid were mixed with 10 μL of diluted TNS to a final volume of 250 μL with buffer containing 10 mM HEPES, 10 mM MES, 10 mM NH4OAc and 130 mM NaCl where the pH ranged from 3 to 9 in 0.5 pH increments.
Samples were mixed thoroughly, and the fluorescence intensity was measured at room temperature in a BioTek™ Synergy™ H1 Hybrid Multi-Mode Monochromator™ Fluorescence Microplate Reader using excitation and emission wavelengths of 321 nm and 445 nm respectively. A sigmoidal best fit analysis was applied to the fluorescence data using GraphPad Prism™ software, and the pKa was measured as the pH at half-maximal fluorescence intensity.

[4] = system: isolated primary human T cells; experiment: GFP mRNA-LNP transfection of primary human T cells, flow cytometry; format: cell-based
Experimental: Reagents were from Stemcell Technologies unless otherwise stated. Tcells were isolated from a single donor. At 48 h following lipid particle mRNA exposure, the treated T cells were harvested by transferring the cell suspensions to pre-labeled 1.5 mL tubes and centrifuged 300×g at 4 degrees C. for 10 minutes. Supernatant was removed and the pellet resuspended in PBS. An amount of 0.5 ul of BD Horizon™ Fixable Viability Stain 575V™ (BD Biosciences), was added, and the mixture incubated in the dark for 10 minutes at RT. This stain binds to amines.
The cells were centrifuged again as before, then washed twice with 1 mL of stain buffer (BSA, BD Pharminigen), and the washed pellet was diluted in 100 μl BSA. The following antibodies were added to each tube of treated cells in 2 μl volumes: CD25, CD8, CD4, (PerCP-Cy™ 5.5 Mouse Anti Human CD25, BV786 Mouse Anti-Human CD8 Clone RPA-T8, APC-Cy™7 Mouse Anti-Human CD4 Clone SK3 (all from BD Pharmingen) with the exception of the controls: in the eGFP only sample and viability control, no antibody was added. In the single stain compensation tubes, only one antibody per tube was added.
The tubes were incubated at 4 degrees C. for 30 min, whereupon […] of stain buffer was added, and the cells were centrifuged again. Cells were washed once with 1 mL of stain buffer and spun down again as in step one. Cell pellets were resuspended in 1 mL of stain buffer and added to pre-labeled flow tubes with cell strainer caps (Corning Falcon). […]
GFP MFI was measured by flow cytometry 48 hours after LNP addition. T cells were isolated from whole blood using a negative isolation procedure (EasySep™ Human T Cell Isolation Kit, Stemcell Technologies). T cells were dosed with mRNA-LNPs 3 days after activation with 500 ng of encapsulated mRNA per 125,000 cells. The LNP were CT10 compositions with an N/P of 8. Transfection efficiency (upper graph) and MFI (lower graph) were measured by flow cytometry 48 h after LNP addition.

human T cells = experiment: eGFP ELISA after eGFP mRNA LNP treatment of human T cells; format: cell-based; details: Table 4; for Fold Change Relative to MC3: eGFP (pg) relative to MC3; for eGFP: quantity of expressed eGFP, eGFP mRNA LNPs, CT10
Experimental: Reagents were acquired from Abcam, Cambridge, UK unless otherwise stated. […] The assay was performed as directed by the eGFP SimpleStep ELISA® Kit protocol. Briefly; frozen human T cells, previously isolated from fresh human whole blood using a negative selection protocol, were thawed and activated using a triple activator. […] After 48 hours of treatment with mRNA LNPs the T cells were harvested and lysed for total eGFP content.
In order to expose the isolated and activated T cells (Day 0) to the formulated mRNA, 2 ug of CleanCap™ eGFP (Trilink Biotechnologies, San Diego, CA) mRNA-containing LNP was added to 500,000 T cells in 1 mL of complete T cell media, with 1 ug/mL of Recombinant Human ApoE4 (“ApoE”) (Peprotech Inc., Montreal, Canada).
Frozen human T cells, previously isolated from fresh human whole blood using a negative selection protocol, were thawed and activated using a triple activator. At 10 days post-activation, T cells were dosed with CT10 mRNA LNPs LNP comprising DLin-MC3-DMA, PNI 76, PNI 119, PNI 120, PNI 121, and PNI 122 encoding eGFP at 2 pg mRNA per 500,000 cells and N/P 10. Protein expression was measured after 48 hours by eGFP ELISA.

[5] = Table 6, GFP-encoded LNPs, CT10, N/P 8
[6] = Table 7, EPO mRNA LNPs, LM02, N/P 6
[7] = Table 1, formulated lipid nanoparticles, TNS assay, read-out: Exp. pKa
[8] = Table 4, determined by TNS assay, read-out: pKa Ex.

For `CCCCC/C=C\C/C=C\CCCCCCCC(=O)O[C@@H]1[C@@H](OC(=O)CCCCCCC/C=C\C/C=C\CCCCC)CO[C@@H]1COC(=O)CC1CCCCN1C` (mixture of isomers) [PNI 540], the “hEPO protein level compared with MC3” value (C56BL/6 mice; FIG. 9, 5-moU EPO mRNA, LM02, N/P 6, 0.5 mg/Kg, 6 h) was “compare well to MC3”, the “protein expression in vivo compared with MC3” value (C56BL/6 mice; summary, Table 7 and Figures) was “equivalent to MC3” and the “Encapsulation Efficiency (%)” value [1, 5] was 93.5%. The “Encapsulation Efficiency (%)” value [1, 6] was 88.1%, the “Diameter (Z. ave, nm)” value [2, 5] was 60.6 nm and the “Polydispersity Index (PDI)” value [2, 5] was 0.08. For the same compound, the “Diameter (Z. ave, nm)” value [2, 6] was 65.7 nm, the “Polydispersity Index (PDI)” value [2, 6] was 0.05 and the pKa [3, 7] was 5.6. It also gave a pKa ([3]; Table 8, read-out: Exp.pKa) of 5.6.

With `CCCCCCCCC1CC1CCCCCCCC(=O)O[C@@H]1[C@@H](OC(=O)CCCCCCCC2CC2CCCCCCCC)CO[C@@H]1COC(=O)C1(C)CCN(C)CC1` (mixture of isomers) [PNI 541] the “amount of protein produced (MFIs) compared with MC3” value [4] was “better than MC3”, the “protein expression (GFP MFI) compared with MC3” value ([4]; FIG. 5, CT10, N/P 8, 500 ng mRNA per 125,000 cells, 3 days after activation, 48 h) was “higher levels of protein expression than MC3” and the “amount of protein produced (MFI) in human T cells compared with MC3” value ([4]; summary) was “better than MC3”. For the same compound, the “Encapsulation Efficiency (%)” value [1, 5] was 73.5%, the “Encapsulation Efficiency (%)” value [1, 6] was 97.1% and the “Diameter (Z. ave, nm)” value [2, 5] was 109.4 nm. The “Polydispersity Index (PDI)” value [2, 5] was 0.28, the “Diameter (Z. ave, nm)” value [2, 6] was 73.8 nm and the “Polydispersity Index (PDI)” value [2, 6] was 0.06. The pKa [3, 7] was 6.46 and the pKa ([3]; Table 8, read-out: Exp.pKa) was 6.46.

In the case of `CCCCCCCCCCCCCC(=O)O[C@@H]1[C@@H](OC(=O)CCCCCCCCCCCCC)CO[C@@H]1COC(=O)CCCN(C)C` [PNI], the “Fold Change Relative to MC3” value (human T cells) is reported as 0.589, the “eGFP” value (human T cells) is reported as 807.0 pg and the pKa [3, 8] is reported as 7.48.

With `CCCCC/C=C\C/C=C\CCCCCCCCC(CCCCCCCC/C=C\C/C=C\CCCCC)OC(=O)CCCN(C)C` [MC 3, DLin-MC3-DMA, reference compound] the “% eGFP +” value ([4]; Table 4, transfection efficiency, eGFP mRNA LNPs, CT10, N/P 8) was 58.95%, the “Fold Change Relative to MC3” value (human T cells) was 1 and the “eGFP” value (human T cells) was 1370.0 pg. It also gave a pKa [3, 8] of 5.99.
